Test results published in US20220354805A1, “Cannabidiol (CBD) as Chemical for Treating Aging-related Degenerative Diseases and Promoting Health Aging” (Hemix Biotech Limited, priority 2021, published 2022).

Legend:
[1] = system: wildtype and LMNA^G609G/G609G MEFs; experiment: Cell proliferation rate (population doubling level, PDL) of MEFs; assay type: cell-based, mouse
Excerpt: In the step of isolating mouse embryo fibroblasts (MEFs), heterozygous (LMNA^G609G/+) mice were set for mating. The date of pregnancy of mice was identified by checking for vaginal plug in the morning following the day of mating. If the vaginal plug was found, the mouse was considered to be pregnant for 0.5 days (E0.5). When the embryos reached E12.5 to E13.5, the pregnant mice were sacrificed, and the embryos were isolated from the mice inside tissue culture hood using sterile utensils. The embryos were placed in phosphate buffered saline (PBS). Their head and liver were removed. A portion of the head was used for genotyping to identify the genotype of each embryo. The body of each embryo was transferred to 1mL of 0.1% Trypsin-EDTA solution in a well of 12-well plate. Using sterile scissors, embryos were cut into small pieces. The 12-well plate was then placed in a 37° C. incubator for 10 minutes. Followed by vigorous pipetting of the embryos in Trypsin-EDTA solution until the embryos wholly dissolved into the solution. The 12-well plate was then placed in 37° C. incubator for 5 minutes. The homogenized solution was then transferred to 9 mL of Gibco's High Glucose Dulbecco's Modified Eagle's Medium (DMEM) supplemented with sodium bicarbonate (3.7 g/L), HEPES (6 g/L), 10% fetal bovine serum (FBS) and penicillin-streptomycin (100 units/mL). The isolated MEFs were considered to be at passage 0 (P0). P3 MEFs were used in experiments as they have optimal cellular responses to stimuli. […]
In the step of determining the cell's proliferation rate and optimal concentration, primary mouse embryonic fibroblasts (MEFs) at passage 3 were counted by using LUNA-II Automated Cell Counter. […] After 4-day and 8-day treatment, the cells were counted again using LUNA-II Automated Cell Counter. The population doubling level (PDL) which reflects the proliferation rate of cells was calculated by the formula: n=3.32×(logUCY−logI)+X, where n=the PDL number, UCY=the cell yield at that time point, I=the initial cell number, and X=the doubling level of the cells used to initiate the subculture being quantitated.

[2] = system: p21 and p16 in wildtype and LMNA^G609G/G609G MEFs; experiment: Western blotting of senescence markers in MEFs; assay type: cell-based, mouse; settings: 4-day CBD treatment
Method: In the step of determining the protein expression levels of senescence markers, the primary mouse embryonic fibroblasts (MEFs) at passage 3 were seeded and cultured in 6-well plate and treated with CBD for 4 days. The cells were then washed twice with ice-cold phosphate buffered saline (PBS). RIPA 150 buffer (20 mM Tris-HCl pH 7.5, 1 mM EDTA pH 8.0, 150 mM NaCl, 1% Nonidet P-40, 0.5% sodium deoxycholate) supplemented with 1 mM dithiothreitol (DTT) and proteinase inhibitors was added to the cells and shook at 4° C. for 15 minutes. The cells were then collected into Eppendorf tubes and centrifuged at 12000 rpm at 4° C. for 10 minutes. The supernatant was collected and 6×SDS sample buffer (20 mM Tris-HCl pH 7.5, 30% glycerol, 10% sodium dodecyl sulfate (SDS), 0.6 M DTT, 0.03% bromophenol blue) was added. The samples were boiled for 5 minutes. Then they were ready for sodium dodecyl sulfate-polyacrylamide gel electrophoresis (SDS-PAGE) for Western blotting analysis. Depending on the sizes of target proteins, 7-15% polyacrylamide separating gel and 4% polyacrylamide stacking gel were made. Samples and protein ladders were loaded onto the polyacrylamide gel. Sodium dodecyl sulfate-polyacrylamide gel electrophoresis (SDS-PAGE) was performed in running buffer (25 mM Tris-HCl, 190 mM glycine and 0.1% SDS) under constant voltage of 100V for 20-30 minutes until the samples and protein ladders reached the separating gel. By then, SDS-PAGE was set to run under constant voltage of 120V for about 1 hour, depending on the size of target proteins. The proteins in the separating gel were transferred to polyvinylidene difluoride (PVDF) membrane in transfer buffer (25 mM Tris-HCl, 190 mM glycine, and 20% methanol) at constant current 0.4 A for 1.5 hours on ice. The membranes were blocked with 5% skimmed milk in phosphate buffered saline Tween-20 solution (PBST): 1×PBS and 0.1% Tween-20 and shook at room temperature for 1 hour. Primary antibodies diluted in 5% skimmed milk in PBST were added to the membrane and shook at 4° C. overnight. […]

[3] = system: bone marrow stromal cells of LMNA^G609G/G609G mice; experiment: Crystal violet staining colony formation assay of mouse bone marrow stromal cells; assay type: in vivo; settings: mice treated with 50 mg/kg CBD, vs LMNA^G609G/G609G control mice and wildtype mice; 12 days of culture
Method: In the step of isolating the mouse bone marrow stromal cells for measurement of the clonogenicity, mice were sacrificed and placed inside tissue culture hood. The femur was dissected out using sterile utensils. The mouse bone marrow stromal cells were flushed out of femur using a 29G needle with 1 mL of ice-cold phosphate buffered saline (PBS). The bone marrow stromal cells collected were centrifuged at 3000 rpm for 5 minutes at 4° C. The supernatant was removed, and the cell pellet was resuspended in Minimum Essential Medium Eagle—alpha modification (α-MEM) supplemented with 20% fetal bovine serum (FBS) and penicillin-streptomycin (100 units/mL). The medium was changed every 3 days. After 12 days of culture, crystal violet staining colony formation assay was carried out. The cells were washed twice with ice-cold PBS. The cells were fixed with ice-cold methanol for 10 minutes. Then the cells were stained with 0.5% crystal violet dissolved in 25% methanol for 10 minutes at room temperature. The crystal violet solution was then removed, and the cells were rinsed with double-distilled water (ddH2O) until the rinse became clear. The plates were dried off, and pictures were taken for analysis.

[4] = wildtype and LMNA^G609G/G609G MEFs

SMILES: C=C(C)[C@@H]1CCC(C)=C[C@H]1c1c(O)cc(CCCCC)cc1O [CBD, Cannabidiol]
- effect on PDL ([1]; 10 μM CBD, 4 and 8 days of treatment): increased the PDL to the greatest extent
- effect on PDL (toxicity effect) ([1]; 50 μM CBD, 4 days): decrease in PDL
- optimal concentration (PDL) ([1]; MEFs, 4 and 8 days of treatment): 10 µM
- progerin levels ([2]; MEFs): not affected
- p16 level [2, 4]: downregulate
- p21 level [2, 4]: downregulate
- number of colonies [3]: higher number of colonies
